Measured values from PMC4155245, “Clostridium difficile has a single sortase, SrtB, that can be inhibited by small-molecule inhibitors” (BMC Microbiology, 2014).
Like-named read-outs stand apart in the source and are kept apart here.

Target: T1, SrtB (sortase B, CD630_27180) (Clostridioides difficile, UniProt Q183F3)
T1 construct: SrtBΔN26 (N-terminal transmembrane residues 2–25 replaced with a six-histidine tag)
Assay: FRET peptide cleavage assay (d-PVPPKTGDS-e) with purified recombinant SrtBΔN26
Assay type: biochemical

T1 sequence (Q183F3 entry or part of it): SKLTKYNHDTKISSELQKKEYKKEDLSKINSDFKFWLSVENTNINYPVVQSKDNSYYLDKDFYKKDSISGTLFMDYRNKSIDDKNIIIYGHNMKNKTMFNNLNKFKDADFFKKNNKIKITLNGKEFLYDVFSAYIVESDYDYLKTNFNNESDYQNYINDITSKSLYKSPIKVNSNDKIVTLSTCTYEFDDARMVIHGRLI

| Molecule | IC50 | IC50 (read-out: IC50) |
| --- | --- | --- |
| C[N+](C)(C)CCSS(C)(=O)=O [MTSET, 2-(trimethylamonium)ethylmethanethiosulfonate] | 287 ± 16.6 µM |  |
| LSHTM-0040 [LSHTM40] |  | 63.1 ± 8.8 µM |
| LSHTM-0050 [LSHTM50] |  | 60.1 ± 4.7 µM |
| LSHTM-0052 [LSHTM52] |  | 44.1 ± 6.9 µM |
